Where two headings read alike, the source gives them in different places.
Columns and labels:
recombinant human CK2 = recombinant human CK2 (Homo sapiens (Human), UniProt P68400); assay: CK2 assay (cell-free, 33P-ATP filter plate); assay type: biochemical; conditions: 500 nM compound, read-out: CK2: % inh 500 nM
recombinant human PIM1 = recombinant human PIM1 (Homo sapiens (Human), UniProt P11309); assay: PIM-1 kinase activity in cell-free in vitro assay; assay type: biochemical; conditions: for inhibition at 0.5 µM: 500 nM compound, read-out: PIM-1: % inh 500 nM
Sequence of recombinant human PIM1 (P11309 whole entry): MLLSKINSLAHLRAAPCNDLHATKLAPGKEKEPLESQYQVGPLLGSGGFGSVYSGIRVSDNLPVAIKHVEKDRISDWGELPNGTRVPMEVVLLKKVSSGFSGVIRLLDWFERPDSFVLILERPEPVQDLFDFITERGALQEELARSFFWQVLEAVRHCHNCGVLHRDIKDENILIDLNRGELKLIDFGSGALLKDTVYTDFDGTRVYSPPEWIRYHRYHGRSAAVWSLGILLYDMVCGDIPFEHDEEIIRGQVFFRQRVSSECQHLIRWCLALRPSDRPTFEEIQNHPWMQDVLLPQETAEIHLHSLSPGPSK

[1] = test system: HCT-116 human colorectal carcinoma cells; assay: Cell-proliferation assay using Alamar Blue dye; assay type: cell-based; conditions: Homo sapiens;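 also: cells exposed to compound for about 4 days, then Alamar Blue added and dye fluorescence read after about 4 h, compared with medium-only control wells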
[2] = HCT-116, HCT-116, second column, read-out: HCT-116 (uM), cell proliferation modulatory activity
[3] = HCT-116, second HCT-116 column (c8), read-out: HCT-116 (uM) cell proliferation modulatory activity

Sequence of recombinant human CK2 (P68400 whole entry): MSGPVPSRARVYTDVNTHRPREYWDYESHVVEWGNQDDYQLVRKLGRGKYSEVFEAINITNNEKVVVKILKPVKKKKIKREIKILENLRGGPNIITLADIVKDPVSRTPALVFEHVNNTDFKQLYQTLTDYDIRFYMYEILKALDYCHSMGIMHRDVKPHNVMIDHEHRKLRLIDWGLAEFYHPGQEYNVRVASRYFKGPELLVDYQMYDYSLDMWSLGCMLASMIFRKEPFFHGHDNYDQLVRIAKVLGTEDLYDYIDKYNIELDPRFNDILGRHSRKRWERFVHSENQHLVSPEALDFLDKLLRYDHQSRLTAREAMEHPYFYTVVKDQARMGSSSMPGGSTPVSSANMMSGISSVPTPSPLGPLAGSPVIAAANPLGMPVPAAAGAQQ
Sequence of recombinant human CK2 (P67870 whole entry partner): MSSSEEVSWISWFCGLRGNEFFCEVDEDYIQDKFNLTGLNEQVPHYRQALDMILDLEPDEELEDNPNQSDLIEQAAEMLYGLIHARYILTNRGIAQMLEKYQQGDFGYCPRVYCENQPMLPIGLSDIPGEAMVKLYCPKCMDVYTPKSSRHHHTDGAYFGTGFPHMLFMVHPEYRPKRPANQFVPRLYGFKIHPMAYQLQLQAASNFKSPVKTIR

Row | Structure (SMILES) | inhibition at 0.5 µM (recombinant human CK2; cell-free assay) [%] | inhibition at 0.5 µM (recombinant human PIM1; cell-free assay) [%] | also measured
1 | COC(=O)c1ccc2c(c1)nc(Nc1ccc(F)c(Cl)c1)c1ncncc12 | – | – | inhibition at 0.5 µM (recombinant human CK2; cell-free): 6.26%; inhibition at 0.5 µM (recombinant human PIM1; cell-free): -17.9%
2 | Cc1noc(-c2ccc3c(c2)nc(Nc2ccccc2)c2ccncc23)n1 | – | – | inhibition at 0.5 µM (recombinant human CK2; cell-free): 27.2%; inhibition at 0.5 µM (recombinant human PIM1; cell-free): 32.7%; IC50 (recombinant human PIM1; cell-free): > 1.1 µM
3 | CC(C)(C)OC(=O)CCNC(=O)c1cccc(Nc2nc3cc(-c4nnn[nH]4)ccc3c3sccc23)c1 | – | – | IC50 [1, 2]: > 10 µM; inhibition at 0.5 µM (recombinant human CK2; cell-free): 40.5%; inhibition at 0.5 µM (recombinant human PIM1; cell-free): -11.7%
4 | O=C(O)c1ccc2c(c1)nc(Nc1cccc(C(=O)Nc3ccccc3)c1)c1ccsc12 | – | – | IC50 [1, 2]: > 10 µM; inhibition at 0.5 µM (recombinant human CK2; cell-free): 37.7%; inhibition at 0.5 µM (recombinant human PIM1; cell-free): -20.9%
5 | O=C(O)c1ccc2c(c1)nc(Nc1cccc(C(=O)Nc3nccs3)c1)c1ccsc12 | – | – | IC50 [1, 2]: > 10 µM; inhibition at 0.5 µM (recombinant human CK2; cell-free): 52.9%; inhibition at 0.5 µM (recombinant human PIM1; cell-free): 5.99%
6 | CC(C)(C)OC(=O)CCNC(=O)c1cccc(Nc2nc3cc(C(=O)O)ccc3c3sccc23)c1 | – | – | IC50 [1, 2]: > 10 µM; inhibition at 0.5 µM (recombinant human CK2; cell-free): 65.5%; inhibition at 0.5 µM (recombinant human PIM1; cell-free): 22.4%
7 | O=C(O)c1ccc2c(c1)nc(Nc1cccc(C(=O)NCc3cccnc3)c1)c1ccsc12 | – | – | IC50 [1, 2]: > 10 µM; inhibition at 0.5 µM (recombinant human CK2; cell-free): 62.2%; inhibition at 0.5 µM (recombinant human PIM1; cell-free): 25.8%
8 | CN(C)C(=O)c1cccc(Nc2nc3cc(C(=O)O)ccc3c3sccc23)c1 | – | – | IC50 [1, 2]: > 10 µM; inhibition at 0.5 µM (recombinant human CK2; cell-free): 21.3%; inhibition at 0.5 µM (recombinant human PIM1; cell-free): -12.2%
9 | Cc1cc(CNC(=O)c2cccc(Nc3nc4cc(C(=O)O)ccc4c4sccc34)c2)no1 | – | – | IC50 [1, 2]: > 10 µM; inhibition at 0.5 µM (recombinant human CK2; cell-free): 62.7%; inhibition at 0.5 µM (recombinant human PIM1; cell-free): 10.6%
10 | CNc1ncc2c(n1)c(Nc1ccccc1)nc1cc(C(=O)OC)ccc12 | -12.1 | -9.76 | –
11 | O=C(O)c1ccc2c(c1)nc(Nc1ccccc1Oc1ccccc1)c1ccncc12 | 96.5 | 25 | IC50 [1, 3]: > 10 µM
12 | O=C(O)c1ccc2c(c1)nc(Nc1ccccc1)c1nccnc12 | 41.5 | -7.65 | IC50 [1, 3]: > 10 µM
13 | O=C(O)c1ccc2c(c1)nc(NCCc1ccccc1)c1nccnc12 | 5.49 | -26 | IC50 [1, 3]: > 10 µM
14 | O=C(O)c1ccc2c(c1)nc(Nc1cccc(F)c1)c1nccnc12 | 88.7 | 21.9 | IC50 [1, 3]: > 10 µM
15 | CN(c1ccccc1)c1nc2cc(C(=O)O)ccc2c2nccnc12 | 19.3 | 1.15 | IC50 [1, 3]: > 10 µM
16 | OCCNc1nc2cc(-c3nnn[nH]3)ccc2c2sccc12 | 51.3 | 101 | IC50 (recombinant human PIM1; cell-free assay): 0.143 µM
17 | N#Cc1ccc2c(c1)nc(Oc1ccccc1)c1ccsc12 | -54.2 | -38.6 | –
18 | COC(=O)c1cccc2c1[nH]c(=O)c1ccncc12 | 16.7 | -70.5 | –
19 | N#Cc1ccc2c(c1)nc(OCC(F)(F)F)c1ccsc12 | -9.05 | -50.2 | –
20 | N#Cc1ccc2c(c1)nc(OCc1ccccc1)c1ccsc12 | 1.85 | -18.4 | –
21 | CN(C)CCOc1nc2cc(C#N)ccc2c2sccc12 | -18 | -43.2 | –
22 | N#Cc1ccc2c(c1)nc(NCCN(CCO)CCO)c1ccsc12 | -9.97 | -17.7 | –
23 | N#Cc1ccc2c(c1)nc(NCCC(F)(F)F)c1ccsc12 | -7.76 | -89.6 | –
24 | N#Cc1ccc2c(c1)nc(NCC(F)(F)F)c1ccsc12 | -18.4 | -32 | –
25 | c1ccc(COc2nc3cc(-c4nnn[nH]4)ccc3c3sccc23)cc1 | 5.71 | -6.97 | –
26 | CN(C)CCOc1nc2cc(-c3nnn[nH]3)ccc2c2sccc12 | 31.4 | 91.6 | –
27 | FC(F)(F)COc1nc2cc(-c3nnn[nH]3)ccc2c2sccc12 | 33 | 32.3 | –

Row | Structure (SMILES) | inhibition at 0.5 µM (recombinant human CK2; cell-free assay) [%] | inhibition at 0.5 µM (recombinant human PIM1; cell-free assay) [%] | also measured
28 | FC(F)(F)CNc1nc2cc(-c3nnn[nH]3)ccc2c2sccc12 | 49 | 93.2 | –
29 | FC(F)(F)CCNc1nc2cc(-c3nnn[nH]3)ccc2c2sccc12 | 58.4 | 92.3 | –
30 | CN1CCC(N(C)c2nc3cc(CN)ccc3c3sccc23)C1 (stereo not shown) | -35.3 | -39.8 | –
31 | CN1CCC(N(C)c2nc3cc(CNC(=O)Nc4cccc(Cl)c4)ccc3c3sccc23)C1 (stereo not shown) | -50.4 | -38.5 | –
32 | O=C(O)c1ccc2c(c1)nc(NC1CCCCC1)c1ccncc12 | 95.8 | 64.8 | –
33 | O=C(O)c1ccc2c(c1)nc(NC1CCCC1)c1ccncc12 | 101 | 106 | IC50 (recombinant human PIM1; cell-free assay): 0.565 µM
34 | N#Cc1ccc2c(c1)nc(Nc1cccc(F)c1)c1ccsc12 | 3.06 | -4.85 | –
35 | OCCN(CCO)CCNc1nc2cc(-c3nnn[nH]3)ccc2c2sccc12 | 50.7 | 118 | IC50 (recombinant human PIM1; cell-free assay): 0.116 µM
36 | N#Cc1ccc2c(c1)nc(Oc1ccc(F)c(F)c1)c1ccsc12 | -9.99 | 27.8 | –
37 | N#Cc1ccc2c(c1)nc(Oc1ccc3ncccc3c1)c1ccsc12 | -7.33 | -22.2 | –
38 | N#Cc1ccc2c(c1)nc(Oc1ccc(F)cc1)c1ccsc12 | -3.78 | 10 | –
39 | CC(=O)c1ccc(Oc2nc3cc(C#N)ccc3c3sccc23)cc1 | -17.9 | 1.38 | –
40 | N#Cc1ccc2c(c1)nc(Oc1cccc(Cl)c1)c1ccsc12 | -10.8 | 10.6 | –
41 | Cc1cc2c(cc1OCc1ccccc1)[nH]c(=O)c1ccncc12 | -7.77 | -10.1 | –
42 | O=c1[nH]c2cnccc2c2cnccc12 | 7.5 | 19.8 | –
43 | NCc1ccc2c(c1)nc(Nc1cccc(F)c1)c1ccsc12 | -8.77 | -16.4 | –
44 | Fc1cccc(Nc2nc3cc(CN(Cc4ccccc4)Cc4ccccc4)ccc3c3sccc23)c1 | -2.29 | 2.98 | –
45 | Cc1cc(NC(=O)NCc2ccc3c(c2)nc(Nc2cccc(F)c2)c2ccsc23)c(C(F)(F)F)o1 | -9.99 | -17.5 | –
46 | Cc1noc(C)c1NC(=O)NCc1ccc2c(c1)nc(Nc1cccc(F)c1)c1ccsc12 | -4.71 | -11.2 | –
47 | Cc1nn(C)c(C)c1NC(=O)NCc1ccc2c(c1)nc(Nc1cccc(F)c1)c1ccsc12 | -5.43 | 11 | –
48 | O=c1[nH]c2cc(F)ccc2c2cnccc12 | -1.1 | 15.3 | –
49 | O=c1[nH]c2ccc(OC(F)(F)F)cc2c2cnccc12 | 1.22 | 9.09 | –
50 | COC(=O)c1cccc2c1nc(Cl)c1ccncc12 [drawing 2000] | 10.1 | -29.2 | –
51 | O=C(O)c1cccc2c1nc(Nc1cccc(Cl)c1)c1ccncc12 [drawing 2001] | 15.5 | 20.2 | –
52 | NC(=O)c1cccc2c1nc(Nc1cccc(Cl)c1)c1ccncc12 [drawing 2002] | 36.6 | 78.9 | –
53 | COC(=O)c1cccc2c1nc(Nc1ccccc1)c1ccncc12 [drawing 2003] | -7.87 | 3.96 | –
54 | O=C(O)c1cccc2c1nc(Nc1ccccc1)c1ccncc12 [drawing 2004] | -13.5 | -77.4 | –
